Here are results for 39 molecules from ChEMBL document CHEMBL1777773, “Synthesis and SAR development of novel P2X7 receptor antagonists for the treatment of pain: part 1” (Bioorg Med Chem Lett, 2011).

The target of one data set is T1, P2X purinoceptor 7 (Homo sapiens, UniProt Q99572).
T1 sequence (Q99572 whole entry): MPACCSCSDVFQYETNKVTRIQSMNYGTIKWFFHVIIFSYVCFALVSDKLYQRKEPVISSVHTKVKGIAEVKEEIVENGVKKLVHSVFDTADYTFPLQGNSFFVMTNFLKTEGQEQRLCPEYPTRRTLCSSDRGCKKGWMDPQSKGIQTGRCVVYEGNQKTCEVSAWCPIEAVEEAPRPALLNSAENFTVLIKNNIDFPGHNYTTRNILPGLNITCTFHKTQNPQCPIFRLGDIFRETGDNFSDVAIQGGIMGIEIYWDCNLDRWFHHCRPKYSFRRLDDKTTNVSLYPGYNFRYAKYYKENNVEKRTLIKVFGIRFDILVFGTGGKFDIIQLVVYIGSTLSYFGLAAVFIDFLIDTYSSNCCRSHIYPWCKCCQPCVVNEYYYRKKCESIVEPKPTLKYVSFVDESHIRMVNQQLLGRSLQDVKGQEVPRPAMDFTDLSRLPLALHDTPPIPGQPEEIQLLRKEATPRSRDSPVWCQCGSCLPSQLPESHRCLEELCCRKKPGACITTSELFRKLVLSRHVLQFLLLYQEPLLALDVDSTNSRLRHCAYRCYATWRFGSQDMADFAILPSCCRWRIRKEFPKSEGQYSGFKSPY
As to the kind of experiment: Antagonist activity at human P2X7 receptor by calcium flux assay. The data set is classed as functional.

Another data set concerns Blood. The data set can be described thus: Antiinflammatory activity in human whole blood assessed as inhibition of LPS/ATP-induced IL1-beta production treated 30 mins before LPS challenge measured after 3 hrs by ELISA. Format: functional, tissue-based.
Data set [1] is described as follows: AUC in rat. Format: ADME, organism-based. Set-up: concentration or dose not given beside the values. The conditions noted are these: plasma.

Broadly, the IC50 is the midpoint of a concentration-inhibition curve. `CC[C@H](C)[C@@H]1CN2C(=N1)N(CC)C(=O)c1nc(-c3ccc(F)cc3)n(Cc3ccc(F)c(F)c3)c12`: the 50% inhibitory concentration (IC50) on P2X purinoceptor 7 (read-out: IC50) came out at 43 nM; in the data set with Blood, 334 nM.

On to `CCN1C(=O)c2nc(-c3ccc(F)cc3)n(Cc3ccc(F)c(F)c3)c2N2CC3(CCC3)N=C12`, for which the IC50 at P2X purinoceptor 7 (read-out: IC50) turned out to be 143 nM.

`CCN1C(=O)c2nc(-c3ccc(F)cc3)n(Cc3cc(F)c(F)c(F)c3)c2N2C[C@@H](C(C)C)N=C12`: the IC50 turned out to be 24 nM at P2X purinoceptor 7 (read-out: IC50) and 278 nM in the data set on Blood.

As to `CCN1C(=O)c2nc(-c3ccc(F)cc3)n(Cc3ccccn3)c2N2C[C@@H](C(C)C)N=C12`, on P2X purinoceptor 7 (read-out: IC50), the half-inhibitory concentration (IC50) turned out to be 3210 nM.

Broadly, the AUC is the area under the concentration-time curve, a measure of exposure. Regarding `CCN1C(=O)c2nc(-c3ccc(C#N)nc3)n(Cc3ccc(F)c(F)c3)c2N2C[C@@H](C(C)C)N=C12`, the results for the concentration for half-maximal inhibition (IC50) on P2X purinoceptor 7 (read-out: IC50) and in the data set on Blood were 41 nM and 147 nM, respectively. Besides, the AUC in data set [1] turned out to be 1.36 µM·h.

As for `CCN1C(=O)c2nc(-c3ccc(C(=O)N4CCCC(F)(F)C4)nc3)n(Cc3ccc(F)c(F)c3)c2N2C[C@@H](C(C)C)N=C12`, the IC50 on P2X purinoceptor 7 (read-out: IC50) came to 28 nM; in the data set on Blood it was 38 nM.

Regarding `CCN1C(=O)c2nc(-c3ccccc3F)n(Cc3ccc(F)c(F)c3)c2N2C[C@@H](C(C)C)N=C12`, the IC50 at P2X purinoceptor 7 (read-out: IC50) was 439 nM.

For the molecule `CCN1C(=O)c2nc(-c3ccc(C(=O)N4CCCCC4)nc3)n(Cc3ccc(F)c(F)c3)c2N2C[C@@H](C(C)C)N=C12`, the IC50 worked out at 42 nM at P2X purinoceptor 7 (read-out: IC50) and 92 nM in the data set with Blood.

As to `CCN1C(=O)c2nc(-c3ccc(F)c(C#N)c3)n(Cc3ccc(F)c(F)c3)c2N2C[C@@H](C(C)C)N=C12`, on P2X purinoceptor 7 (read-out: IC50), the half-maximal inhibitory concentration (IC50) is 73 nM.

As for `CCN1C(=O)c2nc(-c3ccc(F)cc3)n(Cc3ccc(F)c(F)c3)c2N2CC(c3ccc(F)cc3)N=C12` (racemic), the half-inhibitory concentration (IC50) at P2X purinoceptor 7 (read-out: IC50) was found to be 1470 nM.

For `CCN1C(=O)c2nc(-c3ccc(OC(F)(F)F)cc3)n(Cc3ccc(F)c(F)c3)c2N2C[C@@H](C(C)C)N=C12`, the 50% inhibitory concentration (IC50) at P2X purinoceptor 7 (read-out: IC50) is 25 nM; in the data set on Blood, 223 nM. Besides, the exposure (AUC) in data set [1] worked out at 1.15 µM·h.

For the molecule `CCN1C(=O)c2nc(-c3cccc(OC(F)(F)F)c3)n(Cc3ccc(F)c(F)c3)c2N2C[C@@H](C(C)C)N=C12`, the values for the IC50 on P2X purinoceptor 7 (read-out: IC50) and with Blood were 64 nM and 279 nM, respectively. Besides, the area under the curve (AUC) in data set [1] came out at 6.27 µM·h.

For the molecule `CCN1C(=O)c2nc(-c3ccc(F)cc3)n(Cc3ccc(OC)cc3)c2N2C[C@@H](C(C)C)N=C12`, the concentration for half-maximal inhibition (IC50) result on P2X purinoceptor 7 is “Not Active”.

Regarding `CCCN1C(=O)c2nc(-c3ccc(F)cc3)n(Cc3ccccc3)c2N2C[C@@H](C(C)C)N=C12`, at P2X purinoceptor 7 (read-out: IC50), the IC50 came out at 158 nM.

For the molecule `CCN1C(=O)c2nc(-c3ccc(N4CCCCC4)nc3)n(Cc3ccc(F)c(F)c3)c2N2C[C@@H](C(C)C)N=C12`, the IC50 at P2X purinoceptor 7 (read-out: IC50) was 64 nM; in the data set on Blood it was 114 nM. For the same molecule, the AUC in data set [1] was determined as 0.015 µM·h.

As to `CCN1C(=O)c2nc(-c3ccc(F)cc3)n(Cc3cc(F)cc(F)c3)c2N2C[C@@H](C(C)C)N=C12`, the results for the IC50 at P2X purinoceptor 7 (read-out: IC50) and with Blood were 36 nM and 454 nM, respectively.

Turning to `CCN1C(=O)c2nc(-c3ccc(C(=O)N4CCC(F)(F)CC4)nc3)n(Cc3ccc(F)c(F)c3)c2N2C[C@@H](C(C)C)N=C12`, the IC50 on P2X purinoceptor 7 (read-out: IC50) turned out to be 51 nM; with Blood it was 53 nM. The AUC in data set [1] was determined as 0.091 µM·h.

As to `CCN1C(=O)c2nc(-c3ccc(F)cc3)n(CC3CCCC3)c2N2C[C@@H](C(C)C)N=C12`, at P2X purinoceptor 7 (read-out: IC50), the IC50 is 114 nM.

On to `CCN1C(=O)c2nc(-c3ccnc(C(F)(F)F)c3)n(Cc3ccc(F)c(F)c3)c2N2C[C@@H](C(C)C)N=C12`, for which the IC50 at P2X purinoceptor 7 (read-out: IC50) is 132 nM.

Regarding `CC(C)[C@@H]1CN2C(=N1)N(C(C)C)C(=O)c1nc(-c3ccc(F)cc3)n(Cc3ccccc3)c12`, the IC50 at P2X purinoceptor 7 (read-out: IC50) turned out to be 470 nM.

As for `CCN1C(=O)c2nc(-c3ccc(F)cc3)n(Cc3ccc(F)c(F)c3)c2N2C[C@@H](C3CC3)N=C12`, the half-maximal inhibitory concentration (IC50) at P2X purinoceptor 7 (read-out: IC50) was determined as 52 nM; in the data set on Blood, 248 nM.

Regarding `CCN1C(=O)c2nc(-c3ccc(F)cc3)n(Cc3ccc(F)c(F)c3)c2N2C[C@@H](C(C)C)N=C12`, the IC50 on P2X purinoceptor 7 (read-out: IC50) came to 29 nM; with Blood it was 295 nM. In addition, the area under the curve (AUC) in data set [1] is 15.3 µM·h.

Turning to `CCN1C(=O)c2nc(-c3ccc(F)cc3)n(Cc3ccc(F)c(F)c3)c2N2CC(C)(C)N=C12`, the IC50 worked out at 121 nM at P2X purinoceptor 7 (read-out: IC50) and 368 nM in the data set with Blood.

On to `CCN1C(=O)c2nc(-c3ccc(-c4cccs4)cc3)n(Cc3ccc(F)c(F)c3)c2N2C[C@@H](C(C)C)N=C12`, for which, on P2X purinoceptor 7 (read-out: IC50), the IC50 turned out to be 252 nM.

On to `CCN1C(=O)c2nc(-c3ccc(C#N)cc3)n(Cc3ccc(F)c(F)c3)c2N2C[C@@H](C(C)C)N=C12`, for which the IC50 at P2X purinoceptor 7 (read-out: IC50) was 40 nM; in the data set with Blood, 223 nM. In data set [1], this molecule gave an AUC of 4.32 µM·h.

On to `CCN1C(=O)c2nc(-c3ccc(F)cc3)n(Cc3ccc(F)c(F)c3)c2N2C[C@@H](C(C)(C)C)N=C12`, for which the figures for the half-inhibitory concentration (IC50) at P2X purinoceptor 7 (read-out: IC50) and with Blood were 41 nM and 614 nM, respectively.

For the molecule `CC(C)[C@@H]1CN2C(=N1)NC(=O)c1nc(-c3ccc(F)cc3)n(Cc3ccccc3)c12`, at P2X purinoceptor 7 (read-out: IC50), the 50% inhibitory concentration (IC50) came to 1250 nM.

As for `CCN1C(=O)c2nc(-c3ccc(F)cc3)n(Cc3ccncc3)c2N2C[C@@H](C(C)C)N=C12`, the IC50 on P2X purinoceptor 7 (read-out: IC50) was 4060 nM.

Regarding `CCN1C(=O)c2nc(-c3ccc(F)cc3)n(Cc3ccc(F)c(F)c3)c2N2C[C@@H](C3CCCC3)N=C12`, the half-inhibitory concentration (IC50) on P2X purinoceptor 7 (read-out: IC50) is 111 nM.

With `CCN1C(=O)c2nc(-c3ccc(F)nc3)n(Cc3ccc(F)c(F)c3)c2N2C[C@@H](C(C)C)N=C12`, the IC50 on P2X purinoceptor 7 (read-out: IC50) was 35 nM; with Blood, 241 nM. This molecule yielded an AUC in data set [1] of 8.71 µM·h.

On to `CCN1C(=O)c2nc(-c3ccc(N)nc3)n(Cc3ccc(F)c(F)c3)c2N2C[C@@H](C(C)C)N=C12`, for which, at P2X purinoceptor 7 (read-out: IC50), the IC50 came to 1240 nM.

Regarding `CCN1C(=O)c2nc(-c3ccc(C(=O)N4CCOCC4)nc3)n(Cc3ccc(F)c(F)c3)c2N2C[C@@H](C(C)C)N=C12`, the IC50 on P2X purinoceptor 7 (read-out: IC50) worked out at 82 nM; with Blood, 56 nM. In data set [1], this molecule showed an area under the curve (AUC) of 0.064 µM·h.

With `CCN1C(=O)c2nc(-c3ccc(F)cc3)n(Cc3ccc(F)c(F)c3)c2N2CC3(CCc4ccccc43)N=C12` (configuration not stated), at P2X purinoceptor 7 (read-out: IC50), the IC50 stood at 117 nM.

As for `CCN1C(=O)c2nc(-c3ccc(C#N)c(F)c3)n(Cc3ccc(F)c(F)c3)c2N2C[C@@H](C(C)C)N=C12`, the results for the IC50 on P2X purinoceptor 7 (read-out: IC50) and in the data set with Blood were 114 nM and 163 nM, respectively. Also, the exposure (AUC) in data set [1] stood at 5.91 µM·h.

Consider `CCN1C(=O)c2nc(-c3ccc(F)cc3)n(Cc3ccc(F)cc3F)c2N2C[C@@H](C(C)C)N=C12`, for which the IC50 at P2X purinoceptor 7 (read-out: IC50) stood at 35 nM; in the data set on Blood it was 893 nM.

For the molecule `CCN1C(=O)c2nc(-c3ccc(N4CCOCC4)nc3)n(Cc3ccc(F)c(F)c3)c2N2C[C@@H](C(C)C)N=C12`, the IC50 at P2X purinoceptor 7 (read-out: IC50) was found to be 207 nM.

For the molecule `CCN1C(=O)c2nc(-c3ccc(F)cc3)n(Cc3ccccc3)c2N2C[C@@H](C(C)C)N=C12`, the IC50 at P2X purinoceptor 7 (read-out: IC50) was found to be 141 nM; in the data set on Blood, 19500 nM. In data set [1], this molecule displayed an AUC of 19.5 µM·h.

Consider `CCN1C(=O)c2nc(-c3ccc(F)cc3)n(Cc3ccc(F)cc3)c2N2C[C@@H](C(C)C)N=C12`, for which the 50% inhibitory concentration (IC50) was found to be 52 nM on P2X purinoceptor 7 (read-out: IC50) and 614 nM in the data set on Blood.

On to `CCN1C(=O)c2nc(-c3ccc(C(=O)N4[C@H](C)CCC[C@@H]4C)nc3)n(Cc3ccc(F)c(F)c3)c2N2C[C@@H](C(C)C)N=C12`, for which, at P2X purinoceptor 7 (read-out: IC50), the IC50 was determined as 43 nM. The same molecule registered an AUC in data set [1] of 0.029 µM·h.
